Laboratory results as given in US6486169B1, “Botanical drug for treatment and prevention of alzhimer's disease” (priority 2002, dated 2002).
Marks after values point to notes of the source that are not given here.

Experiments:
[1] = system: RNA synthesis of brain cells; assay: RNA synthesis of brain cells, 3H-U incorporation in cell free brain homogenate; assay type: in vivo, mice of DBA/2 strains; settings: mice, injected 1.0 mg/kg, control (saline) 1280
Description: It is known that decline RNA content in cortical and cerebral cortex of AD. RNA of brain cell was determined.
Four months of male mice of DBA/2 strains used in experiment. Mice of treatment group injected HUE or CLE (dose was 1.0 mg/kg). Mice of control group were injected by same value of saline. Mice killed and brain was rapidly removed. Cell free brain homogenate preparations used in experiment. 0.5 μC ^3H-U (20 μCi/mM) was mixed with 1 ml homogenate suspension was incubated at 37° C. Homogenate precipitated with 10% trichloroacetic acid (TCA) and filtered onto glass fiber filters. The filters were washed with phosphate-buffered saline and placed in scintillation vials 10 ml of scintillation solution (which containing […]) were added to digested solution and determined at LSC and radioactive emissions were counted.

[2] = system: male mice of PBA/2 strains; assay: Effect on memory (1): complex learning measures and memory in mice; assay type: in vivo; settings: injected, normal = 100
Description: Four months of male mice of PBA/2 strains used in experiments. […] Mice of HUE group were injected 0.1, 0.5 and 1.0 mg/kg of HUE. The control group was injected saline. Complex learning measures and memory were determined in experiments. (Reference see “Mammalian Models for Research on Aging”, pp 23-180, edited by Committee on Animal Models for Research on Aging, Institute of Laboratory Animal resources, division of Biological Sciences and Assembly of Life Science, published by National Academy Press, Washington, D.C., 1981). Normal animals injected by saline. Control animals injected by anisodine. Anisodine caused mistake of memory.

LTP in CAI area of brain = assay: Long-term potentiation (LTP) by electro-physiological method; assay type: in vivo; settings: control 8
Excerpt: The long-term potentiation (LTP) is model of information stored in brain. LTP is as an index determined by electro-physiological method and express as mv in CAI area of brain.

DA in brain = assay: Concentration of dopamine (DA) in brain; assay type: in vivo; settings: 10 mg/kg each; control 880 ± 97
Excerpt: The effect of CLE and HUE on concentration of dopanmine (DA) was examined. The method of animal is as same as mentioned previously.

[3] = system: Ca++ concentration of brain cells; assay: Ca++ concentration of brain cell; assay type: in vivo; settings: control 112
Description: Method of animal is as same as example 7.
Ca^++ concentration of brain cell was determined.

brain protein synthesis = assay: Brain protein synthesis, (14C) leucine incorporation in cell free brain homogenate; assay type: in vivo, mice of DBA/2 strains; settings: mice, injected 1.0 mg/kg each, control 901
Description: It is known that an age-dependent decline in animal brain protein synthesis. The decreased incorporation of amino acids into proteins can be observed in vitro including brain slices, brain cell suspensions, cell free brain homogenate preparations from older animals. Four months of male mice of DBA/2 strains used in experiment. Mice of HUE group injected HUE and dose was 0.1, 0.5 and 1.0 mg/kg. Mice of control group were injected by same value of saline. Mice killed and brain was rapidly removed. Cell free brain homogenate preparations used in experiment. (^14C) leucine mixed with homogenate suspension was incubated at 37° C. Homogenate precipitated with 10% trichloroacetic acid (TCA) and filtered onto glass fiber filters. The filters were washed with phosphate-buffered saline and placed in scintillation vials 10 ml of scintillation solution (which containing […]) were added to digested solution and determined at LSC and radioactive emissions were counted.

[4] = system: superoxide anion of pig brain; assay: Postischemic SOD-inhibitable NBT reduction (superoxide anion generation) in pig brain; assay type: in vivo; settings: piglets, ischemia-reperfusion, pretreated with HUE 0.5 mg/kg; ischemia-reperfusion control 12.9 ± 2.0, normal 2.8 ± 0.3
Description: Reperfusion injury after prolonged ischemia appeared to oxygen species of cerebral. The superoxide dismutase (SOD)-inhibitable nitroblue tetrazolium (NBT) reduction was determined as an index of superoxide anion generation in pig brain. In present study, effect of HUE on postischemic SOD-inhibitable NBT reduction was determined.
Piglets (1 kg) of either sex were anesthetized Anesthesia was maintained with α-chloralose. A catheter was inserted into a femoral artery to record blood pressure and to sample for blood gases and pH. Another catheter was placed in a femoral vein for injection of drugs. The trachea was cannulated, and the piglets were ventilated with room air. Body temperature was maintained at 37-38° C. with a water-circulating heating pad. Total cerebral ischemia was performed.
SOD-inhibitable NBT reduction was determined as an index of superoxide anion production. In control group, the piglets treated with vehicle (CSF). In treatment group, the piglets pretreated with HUE (0.5 mg/kg). SOD-inhibitable NBT reduction was determined for 20 minutes. For analysis, the slices were minced and homogenized in 1 N NaOH and 0.1% sodium dodecyl sulfate, the mixture centrifuged at 20,000 g for 20 min, the resulting supernatant discarded, and the pellet resuspended in 3 ml pyridine. […] The concentration of formazan in the resulting solution was determined spectrophotometrically at 515 nm.

[5] = system: N2a neuroblastoma cells exposed to Aβ; assay: Viability of N2a neuroblastoma cells exposed to Alzheimer amyloid β protein; assay type: cell-based; settings: 50 μm Aβ for 24 hours, HUE 50 μg/ml, βA alone 35.4, normal 97.5
Excerpt: In AD, the protein forms aggregates of insoluble β-pleated sheets of fibrillar βA protein(amyloid). The conformational change from soluble to fibrillar forms seems to be a spontaneous event. The fibrillization is increased with higher concentrations of βA and with the longer forms of βA, so any production of larger amounts of βA than normal or production of the larger, less soluble forms of βA will tend to increase plaque formation. Once the βA plaque has started to form, other molecules can interact with the nascent plaque to produce eventually the mature plaque with its associated areas of cell death. In present study, effect of HUE on neuroblastoma cells exposed to the Alzheimer amyloid β protein and Aβ was examined.
N2a neuroblastoma cells were cultured and then exposed to 50 μm Aβ for 24 hours.
Concentration of HUE was 50 μg/ml. Cells viability determined by fluorescent staining, iodide and the trypan blue exclusion methods were used in experiments.

[6] = system: male mice of PBA/2 strains; assay: Effect on memory (2): anisodine-caused mistake of memory; assay type: in vivo; settings: anisodine model, dose 50 mg/kg each (50 + 50 for combination), control 38.5 ± 4.0, normal 5.0 ± 1.2
Description: Four months of male mice of PBA/2 strains used in experiments. […] The control group was injected saline. Complex learning measures and memory were determined in experiments. (Reference see “Mammalian Models for Research on Aging”, pp 23-180, edited by Committee on Animal Models for Research on Aging, Institute of Laboratory Animal resources, division of Biological Sciences and Assembly of Life Science, published by National Academy Press, Washington, D.C., 1981). Normal animals injected by saline. Control animals injected by anisodine. Anisodine caused mistake of memory.

## C/C=C1\[C@H]2C=C(C)C[C@]1(N)c1ccc(=O)[nH]c1C2 [HUE, Huperzine]
[1]
  CPM (3H-U into RNA): 1860 CPM
[2]; 0.1 mg/kg
  Increasing memory (%): 150%
[2]; 0.5 mg/kg
  Increasing memory (%): 210%
[2]; 1.0 mg/kg
  Increasing memory (%): 350%
LTP in CAI area of brain
  LTP (mv in CAI): 10 mv
DA in brain
  DA (ng/g brain): 1280 ± 120 ng/g brain
[3]
  Ca^++: 160 µmol/L
Brain protein synthesis
  CPM ((14C) leucine into protein): 2640 CPM
[4]
  Pmol NBT/mm^2, 20 min (SOD-inhibitable NBT reduction): 4.2 ± 0.5 Pmol NBT/mm^2, 20 min
[5]
  Cells viability (%): 80.2* %
[6]
  Number of mistake: *10.8 ± 1.5

## Clausenamide [CLE]
[1]
  CPM (3H-U into RNA): 1540 CPM
LTP in CAI area of brain
  LTP (mv in CAI): 13 mv
DA in brain
  DA (ng/g brain): 1560 ± 102 ng/g brain
[3]
  Ca^++: 220 µmol/L
Brain protein synthesis
  CPM ((14C) leucine into protein): 1580 CPM
[5]
  Cells viability (%): 70.5* %
[6]
  Number of mistake: *11.2 ± 2.0
